Laboratory results as given in article PMC9967275, “Screening the Pathogen Box to Discover and Characterize New Cruzain and TbrCatL Inhibitors” (Pathogens, 2023).
Read-outs that look alike come from different tables or passages of the source.

How the values were obtained:
[1] = biological target: cruzain (Trypanosoma cruzi, UniProt P25779); experiment: biochemical;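 as to Cruzain 0’ Inhibition: at 5 µM compound concentration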;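 as to Cruzain 10’ Inhibition: at 5 µM compound concentration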;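 as to Cruzain Inhibition 0’: at 5 µM compound concentration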;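 as to Cruzain Inhibition 10’: at 5 µM compound concentration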
Sequence of cruzain (P25779 123-337 limits assumed): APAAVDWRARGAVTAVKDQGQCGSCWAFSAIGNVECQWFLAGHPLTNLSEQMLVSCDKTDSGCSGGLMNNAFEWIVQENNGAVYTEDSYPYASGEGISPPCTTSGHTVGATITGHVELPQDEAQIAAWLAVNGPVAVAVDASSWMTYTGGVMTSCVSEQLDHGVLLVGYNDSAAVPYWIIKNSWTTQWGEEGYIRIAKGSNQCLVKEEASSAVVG
Procedure, shortened: (§1)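 Recombinant enzymes assayed by Z-Phe-Arg-AMC cleavage at 25 °C, fluorescence 340/440 nm over 5–7 min, with 10 min or no enzyme–compound preincubation.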

[2] = biological target: T1, TbrCatL (Trypanosoma brucei rhodesiense, UniProt Q95PM0); experiment: TbrCatL enzymatic inhibition assay (cleavage of fluorogenic substrate Z-FR-AMC); assay type: biochemical; conditions: for TbrCatL 0’ Inhibition / TbrCatL 10’ Inhibition: sheet "Screening results";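 as to TbrCatL 0’ Inhibition: at 5 µM compound concentration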;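 as to TbrCatL 10’ Inhibition: at 5 µM compound concentration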;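 as to TbrCatL Inhibition 0’: at 5 µM compound concentration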;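 as to TbrCatL Inhibition 10’: at 5 µM compound concentration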
T1 construct: Conor Caffrey (University of California San Diego)
T1 sequence (Q95PM0 entry or part of it): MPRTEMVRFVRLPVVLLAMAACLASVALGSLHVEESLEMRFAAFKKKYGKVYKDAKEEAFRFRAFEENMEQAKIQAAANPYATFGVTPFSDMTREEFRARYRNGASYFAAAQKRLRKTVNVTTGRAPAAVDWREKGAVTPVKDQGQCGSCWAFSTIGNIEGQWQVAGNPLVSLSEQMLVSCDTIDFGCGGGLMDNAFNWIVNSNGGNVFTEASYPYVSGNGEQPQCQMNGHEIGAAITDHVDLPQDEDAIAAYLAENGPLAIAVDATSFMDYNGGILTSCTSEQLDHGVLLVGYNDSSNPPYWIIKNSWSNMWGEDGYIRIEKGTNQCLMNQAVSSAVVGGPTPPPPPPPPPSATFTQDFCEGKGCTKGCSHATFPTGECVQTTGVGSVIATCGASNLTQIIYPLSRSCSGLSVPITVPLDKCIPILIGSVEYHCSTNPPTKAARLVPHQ
Procedure, shortened: as §1

[3] = 0’ (no pre-incubation), sheet Screening results
[4] = 10’ (pre-incubation), sheet Screening results
[5] = 0’ (pre-incubation time), sheet "Screening results"
[6] = 10’ (pre-incubation time), sheet "Screening results"
[7] = 0’ (pre-incubation time), Pathogen Box screening results
[8] = 10’ (pre-incubation time), Pathogen Box screening results

CC[C@H](CO)NCCN[C@H](CC)CO [MMV687801]
Cruzain Inhibition 0’ [1, 3]: -4.5% | Cruzain Inhibition 10’ [1, 4]: 0.4% | TbrCatL Inhibition 0’ [2, 3]: 7% | TbrCatL Inhibition 10’ [2, 4]: 0.4%

CC(=O)NC[C@@H]1CN(c2ccc(N3CCOCC3)c(F)c2)C(=O)O1 [MMV687803]
Cruzain Inhibition 0’ [1, 3]: -8% | Cruzain Inhibition 10’ [1, 4]: -4% | TbrCatL Inhibition 0’ [2, 3]: 3.8% | TbrCatL Inhibition 10’ [2, 4]: -0.1%

O=C(Nc1ccc(C(F)(F)F)c(C(F)(F)F)c1)c1cc(Cl)ccc1O [MMV687807]
Cruzain 0’ Inhibition [1, 5]: -0.3% | Cruzain 10’ Inhibition [1, 6]: 6% | TbrCatL 0’ Inhibition ([2]; 0’ (pre-incubation time)): -4% | TbrCatL 10’ Inhibition ([2]; 10’ (pre-incubation time)): -5%

O=C1O[C@@H](COc2ccon2)CN1c1cc(F)c(C2=CCN(Cc3ccccc3)CC2)c(F)c1 [MMV687813]
Cruzain 0’ Inhibition [1, 5]: 2.7% | Cruzain 10’ Inhibition [1, 6]: 23% | TbrCatL 0’ Inhibition ([2]; 0’ (pre-incubation time)): 5.3% | TbrCatL 10’ Inhibition ([2]; 10’ (pre-incubation time)): -1%

Cc1cccc(-c2nc(Nc3ccncn3)c3sccc3n2)n1 [MMV688122]
Cruzain Inhibition 0’ [1, 3]: -1.4% | Cruzain Inhibition 10’ [1, 4]: -17% | TbrCatL Inhibition 0’ [2, 3]: 19% | TbrCatL Inhibition 10’ [2, 4]: -8%

CCc1ccc(S(=O)(=O)Nc2cc(CN3CCN(CCC(C)C)CC3)ccc2C)cc1 [MMV688124]
Cruzain 0’ Inhibition [1, 5]: -1.8% | Cruzain 10’ Inhibition [1, 6]: 3% | TbrCatL 0’ Inhibition ([2]; 0’ (pre-incubation time)): -3.3% | TbrCatL 10’ Inhibition ([2]; 10’ (pre-incubation time)): 1%

CCCc1ccc(S(=O)(=O)Nc2ccc(CN3CCN(CC4CC4)CC3)cc2)cc1 [MMV688125]
Cruzain 0’ Inhibition [1, 5]: 4.4% | Cruzain 10’ Inhibition [1, 6]: 9% | TbrCatL 0’ Inhibition ([2]; 0’ (pre-incubation time)): -2.3% | TbrCatL 10’ Inhibition ([2]; 10’ (pre-incubation time)): -4.7%

c1ccc(Oc2ccc(-c3cncc(-c4ccc5[nH]ccc5c4)n3)cc2)cc1 [MMV688178]
Cruzain 0’ Inhibition [1, 5]: -6% | Cruzain 10’ Inhibition [1, 6]: -6% | TbrCatL 0’ Inhibition ([2]; 0’ (pre-incubation time)): -10% | TbrCatL 10’ Inhibition ([2]; 10’ (pre-incubation time)): -21%

Cc1nn(C)c(C)c1NS(=O)(=O)c1c(Cl)cc(-c2ccnc(N3CCNCC3)c2)cc1Cl [MMV688180]
Cruzain 0’ Inhibition [1, 5]: -4% | Cruzain 10’ Inhibition [1, 6]: 10% | TbrCatL 0’ Inhibition ([2]; 0’ (pre-incubation time)): -7% | TbrCatL 10’ Inhibition ([2]; 10’ (pre-incubation time)): 28%

C[C@]1(COc2ccc(N3CCC(Oc4ccc(OC(F)(F)F)cc4)CC3)cc2)Cn2cc([N+](=O)[O-])nc2O1 [MMV688262]
Cruzain 0’ Inhibition [1, 5]: -0.1% | Cruzain 10’ Inhibition [1, 6]: -0.4% | TbrCatL 0’ Inhibition ([2]; 0’ (pre-incubation time)): 0.7% | TbrCatL 10’ Inhibition ([2]; 10’ (pre-incubation time)): -1.4%

COc1ccc(-c2cnc3cnc(-c4cccc(OC(C)C)c4)cn23)cc1 [MMV688270]
Cruzain 0’ Inhibition [1, 5]: -4% | Cruzain 10’ Inhibition [1, 6]: 5% | TbrCatL 0’ Inhibition ([2]; 0’ (pre-incubation time)): -8% | TbrCatL 10’ Inhibition ([2]; 10’ (pre-incubation time)): -8%

N=C(N)Nc1ccc(-c2ccc(-c3ccc(NC(=N)N)c(Cl)c3)o2)cc1Cl [MMV688271]
inhibition at 5 µM ([1]; read-out: Cruzain 0’ Inhibition, 0’ (pre-incubation time), sheet "Screening results"): 83% | inhibition at 5 µM ([1]; read-out: Cruzain 10’ Inhibition, 10’ (pre-incubation time), sheet "Screening results"): 50% | inhibition at 5 µM ([1]; read-out: Inhibition at 5 µM (Mean ± SEM %) Cruzain 0′, 5 µM, no pre-incubation, initial screening): 83 ± 10% | inhibition at 5 µM ([1]; read-out: Inhibition at 5 µM (Mean ± SEM %) Cruzain 10′ inc, 5 µM, 10′ pre-incubation, initial screening): 50 ± 4% | inhibition at 5 µM ([1]; read-out: Inhibition of cruzain or TbrCatL (either enzyme) in the initial screening, 5 µM, either cruzain or TbrCatL, with or without pre-incubation): ≥ 60% | inhibition at 5 µM ([2]; read-out: Inhibition at 5 µM (Mean ± SEM %) TbrCatL 0′): 53 ± 5% | inhibition at 5 µM ([2]; read-out: Inhibition at 5 µM (Mean ± SEM %) TbrCatL 10′ inc): 43 ± 1% | inhibition at 5 µM ([2]; read-out: TbrCatL 0’ Inhibition): 53% | inhibition at 5 µM ([2]; read-out: TbrCatL 10’ Inhibition): 43%

Nc1ccc2ncnc(Nc3ccc(OCc4cccc(F)c4)c(Cl)c3)c2c1 [MMV688273]
Cruzain Inhibition 0’ [1, 7]: -11% | Cruzain Inhibition 10’ [1, 8]: -18% | TbrCatL Inhibition 0’ [2, 7]: 0.9% | TbrCatL Inhibition 10’ [2, 8]: -14%

O=C(CN1CCOCC1)Nc1ccc2ncnc(Nc3ccc(OCc4cccc(F)c4)c(Cl)c3)c2c1 [MMV688274]
Cruzain 0’ Inhibition [1, 5]: 5.7% | Cruzain 10’ Inhibition [1, 6]: 2.4% | TbrCatL 0’ Inhibition ([2]; 0’ (pre-incubation time)): 13% | TbrCatL 10’ Inhibition ([2]; 10’ (pre-incubation time)): 17%

CC1=Nc2ccc(Cl)cc2C(O)(c2ccc(C)cc2)N1CCN1CCCCC1 (stereo not drawn) [MMV688279]
Cruzain 0’ Inhibition [1, 5]: -4.5% | Cruzain 10’ Inhibition [1, 6]: 0.1% | TbrCatL 0’ Inhibition ([2]; 0’ (pre-incubation time)): -3% | TbrCatL 10’ Inhibition ([2]; 10’ (pre-incubation time)): -5%

CN1CCN(S(=O)(=O)c2ccc(-c3ccc4c(Nc5ncc(Cl)cn5)ccnc4c3)cc2)CC1 [MMV688283]
Cruzain Inhibition 0’ [1, 3]: 30% | Cruzain Inhibition 10’ [1, 4]: 31% | TbrCatL Inhibition 0’ [2, 3]: 24% | TbrCatL Inhibition 10’ [2, 4]: 18%

COc1ccc(-c2nnc3ccc(-c4cccc(C(C)C)c4)cn23)cc1OC [MMV688313]
Cruzain 0’ Inhibition [1, 5]: -16% | Cruzain 10’ Inhibition [1, 6]: -10% | TbrCatL 0’ Inhibition ([2]; 0’ (pre-incubation time)): -19% | TbrCatL 10’ Inhibition ([2]; 10’ (pre-incubation time)): -27%

CC(=O)NC[C@H]1CN(c2ccc(-c3ccc(CNCc4cn[nH]n4)cc3)c(F)c2)C(=O)O1 [MMV688327]
Cruzain Inhibition 0’ [1, 3]: -3.5% | Cruzain Inhibition 10’ [1, 4]: 4% | TbrCatL Inhibition 0’ [2, 3]: -5.5% | TbrCatL Inhibition 10’ [2, 4]: 6.4%

CC(=O)N1CCN(c2ccc(Oc3ccc(Cl)cc3O)cc2)CC1 [MMV688330]
Cruzain Inhibition 0’ [1, 7]: -3% | Cruzain Inhibition 10’ [1, 8]: -11% | TbrCatL Inhibition 0’ [2, 7]: -8% | TbrCatL Inhibition 10’ [2, 8]: -10%

Nc1nc(N)c2c3c(sc2n1)CN(Cc1ccccc1)CC3 [MMV688345]
Cruzain 0’ Inhibition [1, 5]: 3.6% | Cruzain 10’ Inhibition [1, 6]: 16% | TbrCatL 0’ Inhibition ([2]; 0’ (pre-incubation time)): -1% | TbrCatL 10’ Inhibition ([2]; 10’ (pre-incubation time)): 23%

COC(=O)c1ccc(F)cc1NS(=O)(=O)c1cccc(-c2cnn(Cc3ccccc3)c2)c1 [MMV688350]
Cruzain Inhibition 0’ [1, 3]: -7% | Cruzain Inhibition 10’ [1, 4]: -5% | TbrCatL Inhibition 0’ [2, 3]: 2% | TbrCatL Inhibition 10’ [2, 4]: -9%

O=C1[C@@H](Oc2ccccc2)[C@@H](c2ccc(Cl)cc2)N1CCn1cnc2c(NCc3ccccc3)ncnc21 [MMV688352]
Cruzain 0’ Inhibition [1, 5]: 0% | Cruzain 10’ Inhibition [1, 6]: 23% | TbrCatL 0’ Inhibition ([2]; 0’ (pre-incubation time)): 5% | TbrCatL 10’ Inhibition ([2]; 10’ (pre-incubation time)): 12%

COc1ccc(C2=NN(C3CCCCCC3)C(=O)C2(C)C)cc1OCc1ccccn1 [MMV688360]
Cruzain Inhibition 0’ [1, 3]: 14% | Cruzain Inhibition 10’ [1, 4]: 11% | TbrCatL Inhibition 0’ [2, 3]: 13% | TbrCatL Inhibition 10’ [2, 4]: 16%

c1cc(C2=NCCN2)cc(-c2cc(-c3ccc(C4=NCCN4)cc3)no2)c1 [MMV688361]
Cruzain 0’ Inhibition [1, 5]: 4.5% | Cruzain 10’ Inhibition [1, 6]: 7.4% | TbrCatL 0’ Inhibition ([2]; 0’ (pre-incubation time)): 1.9% | TbrCatL 10’ Inhibition ([2]; 10’ (pre-incubation time)): -3.5%

CC(C)(C)OC(=O)N1CCC(Cn2nc(-c3cnc4ccccc4c3)c3c(N)ncnc32)CC1 [MMV688364]
Cruzain 0’ Inhibition [1, 5]: -14% | Cruzain 10’ Inhibition [1, 6]: 0% | TbrCatL 0’ Inhibition ([2]; 0’ (pre-incubation time)): -10% | TbrCatL 10’ Inhibition ([2]; 10’ (pre-incubation time)): -15%

NCCN(C(=O)c1ccc(Cl)cc1Cl)c1ccc(OCc2ccc(Cl)cc2)cc1 [MMV688371]
Cruzain Inhibition 0’ [1, 3]: 9% | Cruzain Inhibition 10’ [1, 4]: 12% | TbrCatL Inhibition 0’ [2, 3]: 6% | TbrCatL Inhibition 10’ [2, 4]: 1%

O=C(Nc1ccc(F)c(-c2nc3ncc(-c4ccccc4)cc3[nH]2)c1)N1CCCC1 [MMV688372]
Cruzain 0’ Inhibition [1, 5]: 4% | Cruzain 10’ Inhibition [1, 6]: 4.3% | TbrCatL 0’ Inhibition ([2]; 0’ (pre-incubation time)): -5% | TbrCatL 10’ Inhibition ([2]; 10’ (pre-incubation time)): -11%

COc1cc(C2=NCCN2)ccc1-c1cn(-c2cccc(C3=NCCN3)c2)nn1 [MMV688407]
Cruzain 0’ Inhibition [1, 5]: 2.2% | Cruzain 10’ Inhibition [1, 6]: 21% | TbrCatL 0’ Inhibition ([2]; 0’ (pre-incubation time)): 14% | TbrCatL 10’ Inhibition ([2]; 10’ (pre-incubation time)): 36%

CC1=Nc2ccc(Cl)cc2C(c2ccccc2)N1CCNC(=O)CN(C)C (stereo not drawn) [MMV688410]
Cruzain 0’ Inhibition [1, 5]: -0.5% | Cruzain 10’ Inhibition [1, 6]: 3.8% | TbrCatL 0’ Inhibition ([2]; 0’ (pre-incubation time)): -4.7% | TbrCatL 10’ Inhibition ([2]; 10’ (pre-incubation time)): -3.5%

Nc1ncnc2c1c(-c1cnc3ccccc3c1)nn2CC1CCNCC1 [MMV688411]
Cruzain 0’ Inhibition [1, 5]: -0.3% | Cruzain 10’ Inhibition [1, 6]: 5.5% | TbrCatL 0’ Inhibition ([2]; 0’ (pre-incubation time)): 1.7% | TbrCatL 10’ Inhibition ([2]; 10’ (pre-incubation time)): 3.7%

CO[C@@H]1CN(c2ccc(C#CC3(O)CN4CCC3CC4)c(Cc3ccccc3)n2)C[C@H]1O (stereo partly drawn) [MMV688415]
Cruzain Inhibition 0’ [1, 7]: -4% | Cruzain Inhibition 10’ [1, 8]: 16% | TbrCatL Inhibition 0’ [2, 7]: -8% | TbrCatL Inhibition 10’ [2, 8]: 3%
